Converted amounts (≈) assume the structure as drawn.
Assays:
Type in all cases: cell-based
S. aureus MP-12 = experiment: microbe, parasite or virus in culture; conditions: Staphylococcus aureus, MP12, read-out: MIC S. aureus MP-12
E. coli MP-4 = experiment: MIC determination by CLSI broth dilution, E. coli MP-4; conditions: Escherichia coli, MP4, CLSI broth dilution; strain MP-4
K. pneumoniae MP-546 = experiment: MIC determination by CLSI broth dilution, K. pneumoniae MP-546; conditions: Klebsiella pneumoniae, MP546, CLSI broth dilution; strain MP-546
K. pneumoniae MP-648 = experiment: MIC determination by CLSI broth dilution, K. pneumoniae MP-648; conditions: Klebsiella pneumoniae, MP648, CLSI broth dilution; strain MP-648
P. aeruginosa MP-3 = experiment: MIC determination by CLSI broth dilution, P. aeruginosa MP-3; conditions: Pseudomonas aeruginosa, MP3, strain MP-3
A. baumannii MP-15 = experiment: MIC determination by CLSI broth dilution, A. baumannii MP-15; conditions: Acinetobacter baumannii, MP15, strain MP-15, read-out: MIC A. baumanii MP-15

SMILES | MIC (S. aureus MP-12) | MIC (E. coli MP-4) | MIC (K. pneumoniae MP-546) | MIC (K. pneumoniae MP-648) | MIC (P. aeruginosa MP-3) | MIC (A. baumannii MP-15)
CO[C@]1(C)C[C@@H](C)CN(C)[C@@H](CCCN2CCNC(=O)C2)COC(=O)C(C)(C)C(=O)[C@H](C)[C@H]1O[C@@H]1O[C@H](C)C[C@H](N(C)C)[C@H]1O [Compound 115, (3S,6R,8R,9R,10R)-9-(((2S,3R,4S,6R)-4-(dimethylamino)-3-hydroxy-6-methyltetrahydro-2H-pyran-2-yl)oxy)-8-methoxy-4,6,8,10,12,12-hexamethyl-3-(3-(3-oxopiperazin-1-yl)propyl)-1-oxa-4-azacyclotridecane-11,13-dione] | > 32 µg/mL | > 32 µg/mL | > 32 µg/mL | > 32 µg/mL | > 32 µg/mL | > 32 µg/mL
CO[C@]1(C)C[C@@H](C)CN(C)[C@@H](CCCN2CCC[C@@H]2C)COC(=O)C(C)(C)C(=O)[C@H](C)[C@H]1O[C@@H]1O[C@H](C)C[C@H](N(C)C)[C@H]1O [Compound 117, (3S,6R,8R,9R,10R)-9-(((2S,3R,4S,6R)-4-(dimethylamino)-3-hydroxy-6-methyltetrahydro-2H-pyran-2-yl)oxy)-8-methoxy-4,6,8,10,12,12-hexamethyl-3-(3-((S)-2-methylpyrrolidin-1-yl)propyl)-1-oxa-4-azacyclotridecane-11,13-dione] | < 4 µg/mL | < 4 µg/mL | < 4 µg/mL | < 4 µg/mL | > 32 µg/mL | > 32 µg/mL
CCN1CCC(C[C@@H]2COC(=O)C(C)(C)C(=O)[C@H](C)[C@@H](O[C@@H]3O[C@H](C)C[C@H](N(C)C)[C@H]3O)[C@](C)(OC)C[C@@H](C)CN2CC)CC1 [Compound 118, (3R,6R,8R,9R,10R)-9-(((2S,3R,4S,6R)-4-(dimethylamino)-3-hydroxy-6-methyltetrahydro-2H-pyran-2-yl)oxy)-4-ethyl-3-((1-ethylpiperidin-4-yl)methyl)-8-methoxy-6,8,10,12,12-pentamethyl-1-oxa-4-azacyclotridecane-11,13-dione] | 4 to 32 µg/mL (≈ 6.25 to 50 µM) | < 4 µg/mL | < 4 µg/mL | < 4 µg/mL | > 32 µg/mL | 4 to 32 µg/mL (≈ 6.25 to 50 µM)
CO[C@]1(C)C[C@@H](C)CN(C)[C@@H](CCCN2CCc3ccccc3C2)COC(=O)C(C)(C)C(=O)[C@H](C)[C@H]1O[C@@H]1O[C@H](C)C[C@H](N(C)C)[C@H]1O [Compound 120, (3S,6R,8R,9R,10R)-3-(3-(3,4-dihydroisoquinolin-2 (1H)-yl)propyl)-9-(((2S,3R,4S,6R)-4-(dimethylamino)-3-hydroxy-6-methyltetrahydro-2H-pyran-2-yl)oxy)-8-methoxy-4,6,8,10,12,12-hexamethyl-1-oxa-4-azacyclotridecane-11,13-dione] | < 4 µg/mL | < 4 µg/mL | < 4 µg/mL | < 4 µg/mL | > 32 µg/mL | 4 to 32 µg/mL (≈ 5.94 to 47.5 µM)
CO[C@]1(C)C[C@@H](C)CN(CC(C)C)[C@@H](CCCN2CCCCC2)COC(=O)C(C)(C)C(=O)[C@H](C)[C@H]1O[C@@H]1O[C@H](C)C[C@H](N(C)C)[C@H]1O [Compound 121, (3S,6R,8R,9R,10R)-9-(((2S,3R,4S,6R)-4-(dimethylamino)-3-hydroxy-6-methyltetrahydro-2H-pyran-2-yl)oxy)-4-isobutyl-8-methoxy-6,8,10,12,12-pentamethyl-3-(3-(piperidin-1-yl)propyl)-1-oxa-4-azacyclotridecane-11,13-dione] | 4 to 32 µg/mL (≈ 5.99 to 47.9 µM) | < 4 µg/mL | 4 to 32 µg/mL (≈ 5.99 to 47.9 µM) | 4 to 32 µg/mL (≈ 5.99 to 47.9 µM) | > 32 µg/mL | > 32 µg/mL
CO[C@]1(C)C[C@@H](C)CN(C)[C@@H](CCCN2CCC[C@H]2C)COC(=O)C(C)(C)C(=O)[C@H](C)[C@H]1O[C@@H]1O[C@H](C)C[C@H](N(C)C)[C@H]1O [Compound 122, (3S,6R,8R,9R,10R)-9-(((2S,3R,4S,6R)-4-(dimethylamino)-3-hydroxy-6-methyltetrahydro-2H-pyran-2-yl)oxy)-8-methoxy-4,6,8,10,12,12-hexamethyl-3-(3-((R)-2-methylpyrrolidin-1-yl)propyl)-1-oxa-4-azacyclotridecane-11,13-dione] | 4 to 32 µg/mL (≈ 6.39 to 51.1 µM) | < 4 µg/mL | < 4 µg/mL | < 4 µg/mL | > 32 µg/mL | > 32 µg/mL
CO[C@]1(C)C[C@@H](C)CN(C)[C@@H](CCCN2CCC[C@@H]2C(F)(F)F)COC(=O)C(C)(C)C(=O)[C@H](C)[C@H]1O[C@@H]1O[C@H](C)C[C@H](N(C)C)[C@H]1O [Compound 123, (3S,6R,8R,9R,10R)-9-(((2S,3R,4S,6R)-4-(dimethylamino)-3-hydroxy-6-methyltetrahydro-2H-pyran-2-yl)oxy)-8-methoxy-4,6,8,10,12,12-hexamethyl-3-(3-((R)-2-(trifluoromethyl)pyrrolidin-1-yl)propyl)-1-oxa-4-azacyclotridecane-11,13-dione] | > 32 µg/mL | > 32 µg/mL | > 32 µg/mL | > 32 µg/mL | > 32 µg/mL | > 32 µg/mL
